Where “and” joins values, the source holds several entries; their conditions need not be identical. Equal entries are not always repeated.
target: Replicase polyprotein 1ab (Severe acute respiratory syndrome coronavirus 2, UniProt P0DTD1); experiment: Functional biochemical assay to identify treatments for viral infectious disease that targets SARS-COV-2 nsp3 macrodomain, whereby the mechanism of action displaces an ADP-Ribose modified peptide from the binding site. Utilizing a time-resolved fluorescence method to measure binding by reading the emitted fluorescence intensity in two wavelengths.

Structure (SMILES)	IC50
C[C@@H](C(=O)O)[C@H](NC(=O)c1ncnc2[nH]ccc12)c1ccc(Br)cc1	2.85 µM and 0.982 µM and 1.03 µM
CCNC(=O)c1cc2c(N[C@H](c3ccc4c(c3)OCCO4)C(C)C)ncnc2[nH]1	46.8 µM
CC(C)[C@@H](Nc1ncnc2[nH]c(-c3cccc(-n4cnnn4)c3)cc12)c1ccc2c(c1)S(=O)(=O)CCC2	0.241 µM
CC(C)[C@@H](Nc1cc(-n2ccnn2)ncn1)c1ccc2c(c1)S(=O)(=O)CCC2	> 99.5 µM
CC(C)[C@H](Nc1ncncc1-n1nccn1)c1ccc2c(c1)S(=O)(=O)CCC2	> 99.5 µM
CC(C)[C@@H](Nc1ncnc2[nH]c(-c3ccc(S(=O)(=O)NCCO)cc3)cc12)c1ccc2c(c1)S(=O)(=O)CCC2	0.1 µM and 0.09 µM and 0.156 µM
CC(C)[C@H](Nc1ncnc2ccoc12)c1ccc2c(c1)S(=O)(=O)CCC2	> 99.5 µM
CC(=O)Nc1ccc(-c2cc3c(N[C@@H](c4ccc5c(c4)S(=O)(=O)CCC5)C(C)C)ncnc3[nH]2)cc1F	0.203 µM and 0.12 µM and 0.206 µM
CC(C)[C@H](Nc1nc(N)ncc1Cl)c1ccc2c(c1)S(=O)(=O)CCC2	> 99.5 µM
CC(C)[C@@H](Nc1ncnc2[nH]c(-c3ccc4c(c3)C(C)(C)C(=O)N4)cc12)c1ccc2c(c1)S(=O)(=O)CCC2	0.334 µM
CCNC(=O)c1cc2c(N[C@H](c3ccnc(N)c3)C(C)C)ncnc2[nH]1	1.79 µM
CC(C)[C@@H](Nc1cc(N2CCOCC2)ncn1)c1ccc2c(c1)S(=O)(=O)CCC2	> 99.5 µM
CCNC(=O)c1cc2c(N[C@H](c3ccc4c(n3)S(=O)(=O)CCO4)C(C)C)ncnc2[nH]1	0.11 µM
CC(C)[C@@H](Nc1ncnc2c1OCCO2)c1ccc2c(c1)S(=O)(=O)CCC2	> 99.5 µM
CC(C)[C@H](Nc1ncncc1-n1ccnn1)c1ccc2c(c1)S(=O)(=O)CCC2	> 99.5 µM
CC(C)[C@@H](Nc1cc(N)ncn1)c1ccc2c(c1)S(=O)(=O)CCC2	43.8 µM
CC(C)[C@@H](Nc1ncnc(N2CCCC2)n1)c1ccc2c(c1)S(=O)(=O)CCC2	> 99.5 µM
CC(C)[C@@H](Nc1ncnc2[nH]c(-c3ccc(S(N)(=O)=O)c4nsnc34)cc12)c1ccc2c(c1)S(=O)(=O)CCC2	0.242 µM
CC(C)[C@@H](Nc1ncnc2[nH]c(-c3cccc4c3NC(=O)C4)cc12)c1ccc2c(c1)S(=O)(=O)CCC2	0.36 µM
CCNC(=O)c1cc2c(NC3(c4ccc5c(c4)S(=O)(=O)CCC5)CC3)ncnc2[nH]1	24.6 µM
CC(C)[C@@H](NC(=O)Cc1ncnc2[nH]ccc12)c1ccc2c(c1)S(=O)(=O)CCC2	> 99.5 µM
CCNC(=O)c1cc2c(N[C@H](c3ccc4nc(NC(C)=O)sc4c3)C(C)C)ncnc2[nH]1	30.1 µM

Structure (SMILES)	IC50
CC(C)[C@H](Nc1ncnc2n[nH]cc12)c1ccc2c(c1)S(=O)(=O)CCC2	1.56 µM and 0.77 µM
CC(C)[C@@H](Nc1ncncc1N1CCOCC1)c1ccc2c(c1)S(=O)(=O)CCC2	> 99.5 µM
CC(C)[C@@H](Nc1ncnc2[nH]c(-c3cnc(N)nc3)cc12)c1ccc2c(c1)S(=O)(=O)CCC2	0.085 µM and 0.062 µM and 0.106 µM
CC(C)[C@@H](Nc1ncnc2[nH]c(-c3cncnc3)cc12)c1ccc2c(c1)S(=O)(=O)CCC2	0.478 µM and 0.308 µM and 0.538 µM
CCNC(=O)c1cc2c(N[C@H](c3ccccc3N(C)S(C)(=O)=O)C(C)C)ncnc2[nH]1	> 99.5 µM
CC(C)[C@H](Nc1ncnc(N2CCCC2)n1)c1ccc2c(c1)S(=O)(=O)CCC2	> 99.5 µM
CC(C)[C@@H](Nc1ncnc2[nH]c(-c3cnc(N4CC(O)C4)nc3)cc12)c1ccc2c(c1)S(=O)(=O)CCC2	0.094 µM and 0.068 µM and 0.116 µM
CC(C)[C@H](Nc1ncnc(O)c1Cl)c1ccc2c(c1)S(=O)(=O)CCC2	> 99.5 µM
CNS(=O)(=O)c1cc2c(N[C@@H](c3ccc4c(c3)S(=O)(=O)CCC4)C(C)C)ncnc2[nH]1	1.17 µM
CC(C)[C@@H](Nc1ncnc2[nH]ccc12)c1ccc2c(n1)S(=O)(=O)CCC2	1.11 µM and 0.784 µM
CC(C)[C@H](Oc1cc(N)ncn1)c1ccc2c(c1)S(=O)(=O)CCC2	59.8 µM
CCNC(=O)c1cc2c(N[C@H](c3cnc(C(=O)N(C)C)nc3)C(C)C)ncnc2[nH]1	47.5 µM
CC(C)[C@H](Nc1ncncc1-n1cncn1)c1ccc2c(c1)S(=O)(=O)CCC2	> 99.5 µM
CC(C)[C@@H](Nc1ncnc2[nH]c(C3=CCOC3)cc12)c1ccc2c(c1)S(=O)(=O)CCC2	0.082 µM and 0.114 µM and 0.244 µM
CC(C)[C@H](Nc1ncnc2[nH]c(-c3cnn(CC(=O)N(C)C)c3)cc12)c1ccc2c(c1)OCCO2	0.235 µM and 0.395 µM
CNCc1cc(-c2cc3c(N[C@H](c4ccc5c(c4)S(=O)(=O)CCO5)C(C)C)ncnc3[nH]2)co1	0.057 µM
CC(C)[C@H](Nc1ncnc(-n2cccn2)n1)c1ccc2c(c1)S(=O)(=O)CCC2	> 99.5 µM
CC(=O)N1CCN(Cc2cccc(-c3cc4c(N[C@@H](c5ccc6c(c5)S(=O)(=O)CCC6)C(C)C)ncnc4[nH]3)c2)CC1	0.258 µM and 0.186 µM and 0.325 µM
CC(C)[C@@H](Nc1ncnc2[nH]c(-c3cnc4n3CCC4)cc12)c1ccc2c(c1)S(=O)(=O)CCC2	0.051 µM and 0.043 µM and 0.065 µM and 0.046 µM and 0.052 µM
CC(C)[C@@H](Nc1ncnc2[nH]c(-c3ccc(S(C)(=O)=O)nc3)cc12)c1ccc2c(c1)S(=O)(=O)CCC2	0.049 µM and 0.054 µM and 0.094 µM and 0.06 µM and 0.069 µM
CC(C)[C@H](Nc1ncnc2c1CNCC2)c1ccc2c(c1)S(=O)(=O)CCC2	> 99.5 µM
CC(C)[C@@H](Nc1ncnc2[nH]c(-c3cc4c(cc3F)NC(=O)CC4)cc12)c1ccc2c(c1)S(=O)(=O)CCC2	0.297 µM and 0.189 µM and 0.345 µM

Structure (SMILES)	IC50
CC(C)[C@H](Nc1ncnc2c1OCCO2)c1ccc2c(c1)S(=O)(=O)CCC2	38.4 µM
Cc1n[nH]c(C)c1-c1cc2c(N[C@@H](c3ccc4c(c3)S(=O)(=O)CCC4)C(C)C)ncnc2[nH]1	0.456 µM and 0.272 µM and 0.503 µM
COc1ncnc(N[C@H](c2ccc3c(c2)S(=O)(=O)CCC3)C(C)C)c1F	> 99.5 µM
CC(C)[C@H](Nc1cc(N2CCNCC2)ncn1)c1ccc2c(c1)S(=O)(=O)CCC2	> 99.5 µM
CC(C)[C@@H](Nc1ncnc2[nH]c(-c3ccc(=O)n(C)c3)cc12)c1ccc2c(c1)S(=O)(=O)CCC2	0.05 µM and 0.046 µM and 0.04 µM and 0.048 µM and 0.078 µM
CC(C)[C@H](Nc1ncnc(N)c1Cl)c1ccc2c(c1)S(=O)(=O)CCC2	2.94 µM and 1.56 µM
CC(C)[C@@H](Nc1ncnc2c1CCO2)c1ccc2c(c1)S(=O)(=O)CCC2	62.9 µM
CC(C)[C@H](Nc1cc(NCC(F)(F)F)ncn1)c1ccc2c(c1)S(=O)(=O)CCC2	> 99.5 µM
CC(C)[C@@H](Nc1ncnc2[nH]c(-c3ccn(C)c(=O)c3)cc12)c1ccc2c(c1)S(=O)(=O)CCC2	0.074 µM and 0.063 µM and 0.112 µM
CCNC(=O)c1cc2c(N[C@H](c3ccc4c(c3)NS(=O)(=O)CO4)C(C)C)ncnc2[nH]1	0.029 µM and 0.038 µM and 0.037 µM
CC(=O)N1[C@@H]2CC[C@H]1c1c(ncnc1N[C@@H](c1ccc3c(c1)S(=O)(=O)CCC3)C(C)C)C2	> 99.5 µM
CC(C)[C@H](Nc1cc(O)ncn1)c1ccc2c(c1)S(=O)(=O)CCC2	> 99.5 µM
CC(C)[C@H](Nc1cc(-n2ccnn2)ncn1)c1ccc2c(c1)S(=O)(=O)CCC2	> 99.5 µM
CC(C)[C@@H](Nc1ncnc2[nH]c(-c3cc(O)nc4ccccc34)cc12)c1ccc2c(c1)S(=O)(=O)CCC2	1.67 µM
Cc1nc(N)c(Cl)c(N[C@H](c2ccc3c(c2)S(=O)(=O)CCC3)C(C)C)n1	> 99.5 µM
CC(C)[C@@H](Nc1ncncc1Cl)c1ccc2c(c1)S(=O)(=O)CCC2	> 99.5 µM
CC(C)[C@H](Nc1cc(-n2cncn2)ncn1)c1ccc2c(c1)S(=O)(=O)CCC2	> 99.5 µM
CCNC(=O)c1cc2c(NC3(c4ccc5c(c4)S(=O)(=O)CCC5)CCC3)ncnc2[nH]1	3.05 µM
CC(C)[C@H](Nc1ncnc2[nH]c(-c3cnn(CC(=O)N(C)C)c3)cc12)c1ccc2c(c1)S(=O)(=O)CCC2	5.56 µM and 4.26 µM
CC(C)[C@H](Nc1ncnc(N)c1F)c1ccc2c(c1)S(=O)(=O)CCC2	> 99.5 µM
CNc1ncnc(N[C@H](c2ccc3c(c2)S(=O)(=O)CCC3)C(C)C)c1Cl	> 99.5 µM
CC(C)[C@@H](Oc1cc(N)ncn1)c1ccc2c(c1)S(=O)(=O)CCC2	67.4 µM

Structure (SMILES)	IC50
CC(C)[C@@H](Nc1ncnc2[nH]c(-c3cnn(C)c3)cc12)c1ccc2c(c1)S(=O)(=O)CCO2	0.043 µM and 0.051 µM
CC(C)[C@@H](Nc1ncnc2[nH]c(-c3cnc4c(c3)nnn4C)cc12)c1ccc2c(c1)S(=O)(=O)CCC2	0.241 µM and 0.131 µM and 0.349 µM
CC(C)[C@@H](Nc1ncnc2[nH]c(S(C)(=O)=O)cc12)c1ccc2c(c1)S(=O)(=O)CCC2	0.992 µM
CC(C)[C@H](NC(=O)c1ncnc2[nH]ccc12)c1ccc2c(c1)S(=O)(=O)CCC2	> 99.5 µM
CC(C)[C@@H](Nc1ncnc2[nH]c(-c3ccn4cnnc4c3)cc12)c1ccc2c(c1)S(=O)(=O)CCC2	0.093 µM and 0.073 µM and 0.126 µM
CC(C)[C@@H](Nc1cc(-n2nccn2)ncn1)c1ccc2c(c1)S(=O)(=O)CCC2	> 99.5 µM
CC(C)[C@@H](Nc1cc(N2CCC[C@H]2C(=O)O)ncn1)c1ccc2c(c1)S(=O)(=O)CCC2	> 99.5 µM
CC(C)[C@@H](Nc1ncnc2[nH]c(-c3cn[nH]c3)cc12)c1ccc2c(c1)S(=O)(=O)CCC2	0.063 µM and 0.052 µM and 0.085 µM and 0.058 µM and 0.06 µM
Cc1nnn(C)c1-c1cc2c(N[C@@H](c3ccc4c(c3)S(=O)(=O)CCC4)C(C)C)ncnc2[nH]1	0.414 µM and 0.419 µM
CC(C)[C@H](Nc1cc(-n2nccn2)ncn1)c1ccc2c(c1)S(=O)(=O)CCC2	> 99.5 µM
CC(C)[C@H](Nc1ncnc2c1CCO2)c1ccc2c(c1)S(=O)(=O)CCC2	> 99.5 µM
CC(C)[C@@H](Nc1ncnc2c1CNCC2)c1ccc2c(c1)S(=O)(=O)CCC2	> 99.5 µM
CC(C)[C@@H](Nc1cc(NCC(F)(F)F)ncn1)c1ccc2c(c1)S(=O)(=O)CCC2	2.25 µM
CC(C)[C@@H](NC(=O)c1ncnc2[nH]ccc12)c1ccc2c(c1)S(=O)(=O)CCC2	> 99.5 µM
CC(C)[C@H](Nc1cccc2nc[nH]c(=O)c12)c1ccc2c(c1)S(=O)(=O)CCC2	> 99.5 µM
COc1ccc([C@H](CC(=O)O)NC(=O)c2ncnc3[nH]ccc23)cc1	1.44 µM
CC(C)[C@@H](Nc1cc(N2CCNCC2)ncn1)c1ccc2c(c1)S(=O)(=O)CCC2	> 99.5 µM
CC(C)[C@@H](Nc1ccncn1)c1ccc2c(c1)S(=O)(=O)CCC2	> 99.5 µM
CC(C)[C@H](Nc1cc(N2CCOCC2)ncn1)c1ccc2c(c1)S(=O)(=O)CCC2	> 99.5 µM
CC(C)[C@H](Nc1ncnc2nccnc12)c1ccc2c(c1)S(=O)(=O)CCC2	> 99.5 µM
CC(C)[C@@H](Nc1ncnc2[nH]c(-c3ccnc(OCCN(C)C)c3)cc12)c1ccc2c(c1)S(=O)(=O)CCC2	0.114 µM
CC(C)[C@H](Nc1ncncc1Cl)c1ccc2c(c1)S(=O)(=O)CCC2	> 99.5 µM
